Here are results for 16 compounds from patent US8283353B2, “Fused ring compound and use thereof” (Takeda Pharmaceutical Company Limited, priority 2009, dated 2012).

Assay [1] concerns the target T1, human AT1 receptor (Homo sapiens, UniProt P30556).
T1 construct: expressed in transfected cells; membrane fraction
T1 sequence (P30556 1-359): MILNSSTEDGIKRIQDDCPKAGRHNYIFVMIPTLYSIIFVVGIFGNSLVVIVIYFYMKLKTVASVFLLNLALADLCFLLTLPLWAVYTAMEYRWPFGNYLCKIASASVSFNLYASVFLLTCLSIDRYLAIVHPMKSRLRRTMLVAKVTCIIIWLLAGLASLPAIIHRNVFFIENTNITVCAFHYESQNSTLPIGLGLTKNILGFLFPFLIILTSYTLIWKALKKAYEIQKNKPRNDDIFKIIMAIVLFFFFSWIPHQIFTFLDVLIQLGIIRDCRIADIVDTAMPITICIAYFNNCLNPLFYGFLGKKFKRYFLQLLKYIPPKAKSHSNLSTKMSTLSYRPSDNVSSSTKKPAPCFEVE
Put plainly: AT1 receptor antagonistic activity: [125I]-angiotensin II binding assay on human AT1 receptor-expressing CHO-K1 cellular membrane fraction. The conditions noted are these: 22.5 pM [125I]-angiotensin II, 1 hr room temperature. The procedure, abridged:
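Competition binding used radiolabelled angiotensin II on stably transfected CHO-K1 membrane fractions in Tris pH 7.4/MgCl2 buffer, optionally containing 0.3 mg/mL fatty acid-free BSA, 1 hr at room temperature. Filtration onto GF/C separated bound tracer, and nonspecific binding was measured with candesartan.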

Assay [2] addresses T2, human PPARγ (Homo sapiens, UniProt P37231).
T2 construct: expressed in transfected cells
T2 sequence (P37231 1-477 isoform P37231-2): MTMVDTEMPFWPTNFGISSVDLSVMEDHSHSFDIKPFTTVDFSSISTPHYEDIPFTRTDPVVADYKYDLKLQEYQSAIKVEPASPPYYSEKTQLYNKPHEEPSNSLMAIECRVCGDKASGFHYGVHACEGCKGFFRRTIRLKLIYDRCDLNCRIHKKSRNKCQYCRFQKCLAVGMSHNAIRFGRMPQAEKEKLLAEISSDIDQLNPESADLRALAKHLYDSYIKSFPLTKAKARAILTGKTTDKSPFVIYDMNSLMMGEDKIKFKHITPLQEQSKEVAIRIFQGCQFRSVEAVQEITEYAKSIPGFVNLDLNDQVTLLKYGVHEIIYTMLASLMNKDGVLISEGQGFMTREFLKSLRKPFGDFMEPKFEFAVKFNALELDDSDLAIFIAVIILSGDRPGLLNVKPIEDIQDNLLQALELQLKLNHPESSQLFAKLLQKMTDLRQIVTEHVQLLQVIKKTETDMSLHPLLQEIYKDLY
T2 sequence (P19793 1-462 partner): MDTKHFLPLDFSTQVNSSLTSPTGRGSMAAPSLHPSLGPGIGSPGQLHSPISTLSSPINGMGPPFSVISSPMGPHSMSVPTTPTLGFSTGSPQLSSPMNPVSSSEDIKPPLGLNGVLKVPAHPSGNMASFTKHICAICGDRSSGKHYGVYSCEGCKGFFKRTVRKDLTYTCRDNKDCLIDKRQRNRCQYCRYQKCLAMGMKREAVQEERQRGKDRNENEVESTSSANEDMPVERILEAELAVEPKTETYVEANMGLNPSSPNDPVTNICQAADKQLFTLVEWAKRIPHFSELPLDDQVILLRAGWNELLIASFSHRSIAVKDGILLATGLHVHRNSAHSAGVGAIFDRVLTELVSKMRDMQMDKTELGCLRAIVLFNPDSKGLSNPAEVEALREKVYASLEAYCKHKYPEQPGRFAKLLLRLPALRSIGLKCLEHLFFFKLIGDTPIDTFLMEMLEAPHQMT
Put plainly: PPARγ agonistic activity: luciferase reporter assay in PPARγ:RXRα:4ERPP/CHO-K1 cells. It is filed as cell-based. The conditions noted are these: CHO-K1, test compound 10^−6 M; luciferase activity of control compound X (1 μM) = 100%, non-administration group = 0%. The procedure, abridged: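 CHO-K1 cells stably carrying hPPARγ/RXRα and a 4ERPP luciferase reporter, dosed with test compound for 1 day at 37 °C in Ham's F12 with 0.1% fatty acid-free BSA. Luciferase read by luminescence; activity given as % of 1 μM control compound X (100%) versus untreated (0%).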
On the technique in general: Reporter assays use an easily measured gene product as a stand-in for the process of interest.

Structures are written as SMILES.

The term IC50 denotes the point on the concentration scale where inhibition reaches its midpoint. A high value points to a need for much substance. `CCCc1c(Cc2ccc(-c3ccccc3-c3noc(=O)[nH]3)cc2)c(=O)n([C@H]2CC[C@H](OCC(O)C(F)(F)F)CC2)c2ccnn12` (relative stereo) [Example 428, 6-{[2′-(5-oxo-4,5-dihydro-1,2,4-oxadiazol-3-yl)biphenyl-4-yl]methyl}-7-propyl-4-[trans-4-(3,3,3-trifluoro-2-hydroxypropoxy)cyclohexyl]pyrazolo[1,5-a]pyrimidin-5(4H)-one] gave an IC50 in assay [1] of 1.9 nM. Further, in assay [2], the activation at 1 µM is 27%.
On the same counts, the results for `CCCCc1c(Cc2ccc(-c3ccccc3-c3noc(=O)[nH]3)cc2F)c(=O)n(C2CCOCC2)c2nc(C)nn12` [Example 135, 7-butyl-6-{[3-fluoro-2′-(5-oxo-4,5-dihydro-1,2,4-oxadiazol-3-yl)biphenyl-4-yl]methyl}-2-methyl-4-(tetrahydro-2H-pyran-4-yl)[1,2,4]triazolo[1,5-a]pyrimidin-5(4H)-one] are 0.9 nM and 26%.
The compound `CCCc1c(Cc2ccc(-c3ccccc3-c3noc(=O)[nH]3)cc2)c(=O)n([C@H]2CC[C@H](OCC(O)C(F)F)CC2)c2ncnn12` (stereo partly drawn) [Example 352, 4-[trans-4-(3,3-difluoro-2-hydroxypropoxy)cyclohexyl]-6-{[2′-(5-oxo-4,5-dihydro-1,2,4-oxadiazol-3-yl)biphenyl-4-yl]methyl}-7-propyl[1,2,4]triazolo[1,5-a]pyrimidin-5(4H)-one] returned an IC50 in assay [1] of 1.4 nM. This compound also returned an activation at 1 µM in assay [2] of 20%.
On the same counts, the results for `CCCc1c(Cc2ccc(-c3ccccc3-c3noc(=O)[nH]3)cc2)c(=O)n(CC(=O)C(C)(C)C)c2ncnn12` [Example 10, 4-(3,3-dimethyl-2-oxobutyl)-6-{[2′-(5-oxo-4,5-dihydro-1,2,4-oxadiazol-3-yl)biphenyl-4-yl]methyl}-7-propyl[1,2,4]triazolo[1,5-a]pyrimidin-5(4H)-one] are 1.8 nM and 18%.
In assay [1], `CCCc1c(Cc2ccc(-c3ccccc3-c3noc(=O)[nH]3)cc2F)c(=O)n([C@H]2CC[C@H](O)CC2)c2ncnn12` [Example 167, 6-{[3-fluoro-2′-(5-oxo-4,5-dihydro-1,2,4-oxadiazol-3-yl)biphenyl-4-yl]methyl}-4-(trans-4-hydroxycyclohexyl)-7-propyl[1,2,4]triazolo[1,5-a]pyrimidin-5(4H)-one] had an IC50 of 0.8 nM. This compound had an activation at 1 µM in assay [2] of 43%.
On the same counts, the results for `CCCc1c(Cc2ccc(-c3ccccc3-c3noc(=O)[nH]3)cc2)c(=O)n([C@H]2CC[C@H](Oc3ccc(C(C)=O)cc3)CC2)c2ncnn12` [Example 278, 4-[trans-4-(4-acetylphenoxy)cyclohexyl]-6-{[2′-(5-oxo-4,5-dihydro-1,2,4-oxadiazol-3-yl)biphenyl-4-yl]methyl}-7-propyl[1,2,4]triazolo[1,5-a]pyrimidin-5(4H)-one] are 2.7 nM and 22%.
On the same counts, the results for `CCCc1c(Cc2ccc(-c3ccccc3-c3noc(=O)[nH]3)cc2F)c(=O)n([C@H]2C[C@H](OCC(C)(C)O)C2)c2ncnn12` [Example 367, 6-{[3-fluoro-2′-(5-oxo-4,5-dihydro-1,2,4-oxadiazol-3-yl)biphenyl-4-yl]methyl}-4-[trans-3-(2-hydroxy-2-methylpropoxy)cyclobutyl]-7-propyl[1,2,4]triazolo[1,5-a]pyrimidin-5(4H)-one] are 2.2 nM and 25%.
In the case of `CCCc1c(Cc2ccc(-c3ccccc3-c3noc(=O)[nH]3)cc2F)c(=O)n([C@H]2CC[C@H](OCC(C)O)CC2)c2ccnn12` (relative stereo) [Example 437, 6-{[3-fluoro-2′-(5-oxo-4,5-dihydro-1,2,4-oxadiazol-3-yl)biphenyl-4-yl]methyl}-4-[trans-4-(2-hydroxypropoxy)cyclohexyl]-7-propylpyrazolo[1,5-a]pyrimidin-5(4H)-one], the IC50 in assay [1] turned out to be 1.6 nM. In assay [2], this compound gave an activation at 1 µM of 30%.
For `CCCc1c(Cc2ccc(-c3ccccc3-c3noc(=O)[nH]3)cc2)c(=O)n(CC2CC2)c2ncnn12` [Example 21, 4-(cyclopropylmethyl)-6-{[2′-(5-oxo-4,5-dihydro-1,2,4-oxadiazol-3-yl)biphenyl-4-yl]methyl}-7-propyl[1,2,4]triazolo[1,5-a]pyrimidin-5(4H)-one], in that order: 2 nM and 31%.
For `CCCc1c(Cc2ccc(-c3ccccc3-c3noc(=O)[nH]3)cc2)c(=O)n(C2CCN(c3ccc(O)cc3)CC2)c2ncnn12` [Example 382, 4-[1-(4-hydroxyphenyl)piperidin-4-yl]-6-{[2′-(5-oxo-4,5-dihydro-1,2,4-oxadiazol-3-yl)biphenyl-4-yl]methyl}-7-propyl[1,2,4]triazolo[1,5-a]pyrimidin-5(4H)-one], in that order: 2.9 nM and 35%.
For `C=CCOC1CCC(n2c(=O)c(Cc3ccc(-c4ccccc4-c4noc(=O)[nH]4)cc3)c(CCC)n3ncnc23)CC1` (centres unmarked) [Example 153, 6-{[2′-(5-oxo-4,5-dihydro-1,2,4-oxadiazol-3-yl)biphenyl-4-yl]methyl}-4-[4-(prop-2-en-1-yloxy)cyclohexyl]-7-propyl[1,2,4]triazolo[1,5-a]pyrimidin-5(4H)-one], in that order: 1.9 nM and 53%.
As for `CCCc1c(Cc2ccc(-c3ccccc3-c3noc(=O)[nH]3)cc2)c(=O)n([C@H]2CC[C@H](OC3(C(C)(C)O)CC3)CC2)c2ncnn12` [Example 363, 4-(trans-4-{[1-(1-hydroxy-1-methylethyl)cyclopropyl]oxy}cyclohexyl)-6-{[2′-(5-oxo-4,5-dihydro-1,2,4-oxadiazol-3-yl)biphenyl-4-yl]methyl}-7-propyl[1,2,4]triazolo[1,5-a]pyrimidin-5(4H)-one], in assay [1], the IC50 was 2.3 nM. In assay [2], this compound showed an activation at 1 µM of 22%.
For `CCCc1c(Cc2ccc(-c3ccccc3-c3noc(=O)[nH]3)cc2)c(=O)n([C@H]2CC[C@@]3(CCCO3)CC2)c2ncnn12` [Example 151, 4-[(5R,8R)-1-oxaspiro[4.5]dec-8-yl]-6-{[2′-(5-oxo-4,5-dihydro-1,2,4-oxadiazol-3-yl)biphenyl-4-yl]methyl}-7-propyl[1,2,4]triazolo[1,5-a]pyrimidin-5(4H)-one], the IC50 in assay [1] turned out to be 1.6 nM. For the same compound, in assay [2], the activation at 1 µM amounted to 35%.
With `CCCCc1c(Cc2ccc(-c3ccccc3-c3noc(=O)[nH]3)cc2)c(=O)n(C2CCC(O)CC2)c2ncnn12` (centres unmarked) [Example 147, 7-butyl-4-(4-hydroxycyclohexyl)-6-{[2′-(5-oxo-4,5-dihydro-1,2,4-oxadiazol-3-yl)biphenyl-4-yl]methyl}[1,2,4]triazolo[1,5-a]pyrimidin-5(4H)-one], the IC50 in assay [1] stood at 1 nM. In addition, the activation at 1 µM in assay [2] came out at 26%.
For `CCCCc1c(Cc2ccc(-c3ccccc3-c3noc(=O)[nH]3)cc2)c(=O)n([C@H]2C[C@@H](C)O[C@@H](C)C2)c2ncnn12` [Example 139, 7-butyl-4-[(2R,4r,6S)-2,6-dimethyltetrahydro-2H-pyran-4-yl]-6-{[2′-(5-oxo-4,5-dihydro-1,2,4-oxadiazol-3-yl)biphenyl-4-yl]methyl}[1,2,4]triazolo[1,5-a]pyrimidin-5(4H)-one], in that order: 1.7 nM and 6%.
On the same counts, the results for `CCCc1c(Cc2ccc(-c3ccccc3-c3noc(=O)[nH]3)cc2)c(=O)n(C2CCC3(CC2)OCCCO3)c2ncnn12` [Example 286, 4-(1,5-dioxaspiro[5.5]undec-9-yl)-6-{[2′-(5-oxo-4,5-dihydro-1,2,4-oxadiazol-3-yl)biphenyl-4-yl]methyl}-7-propyl[1,2,4]triazolo[1,5-a]pyrimidin-5(4H)-one] are 3.1 nM and 39%.
